# Measured values published in the supplement of paper PMC4862054.
# What was measured:
# Details in all cases: incubation time: 72 h
# [1] = tested on: BT-474; test: normalised response (% of control), CellTox Green; higher = less cell death (100 = DMSO, 0 = benzethonium chloride kill control)
# Summary of the method: (§1)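 Compound was dispensed into 384-well plates at 5 concentrations in 10-fold steps spanning a 10,000-fold range specific to that compound. Breast cancer cell lines were added as 20 µl suspension and left for 72 h before CellTox Green fluorescence (485/520 nm) and then CellTiter-Glo luminescence, read after 10 min at room temperature. Each reported value is the normalised signal at one concentration, with 0.1 % DMSO set at 100 and a positive kill control at 0 on each plate.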
# [2] = tested on: BT-549; test: as above
# Summary of the method: as §1
# [3] = tested on: CAL-120; test: as above
# Summary of the method: as §1
# [4] = tested on: CAL-148; test: as above
# Summary of the method: as §1
# [5] = tested on: CAL-51; test: as above
# Summary of the method: as §1
# [6] = tested on: CAL-85-1; test: as above
# Summary of the method: as §1
# [7] = tested on: DU-4475; test: as above
# Summary of the method: as §1
# [8] = tested on: HCC1143; test: as above
# Summary of the method: as §1
# [9] = tested on: HCC1599; test: as above
# Summary of the method: as §1
# [10] = tested on: HCC1937; test: as above
# Summary of the method: as §1
# [11] = tested on: HDQ-P1; test: as above
# Summary of the method: as §1
# [12] = tested on: Hs578T; test: as above
# Summary of the method: as §1
# [13] = tested on: MCF-10A; test: as above
# Summary of the method: as §1
# [14] = tested on: MDA-MB-231; test: as above
# Summary of the method: as §1
# [15] = tested on: MDA-MB-436; test: as above
# Summary of the method: as §1
# [16] = tested on: MDA-MB-453; test: as above
# Summary of the method: as §1
# [17] = tested on: MDA-MB-468; test: as above
# Summary of the method: as §1
# [18] = tested on: MFM-223; test: as above
# Summary of the method: as §1
# [19] = tested on: BT-474; test: normalised response (% of control), CellTiter-Glo; higher = more viable cells (100 = DMSO, 0 = benzethonium chloride kill control)
# Summary of the method: as §1
# [20] = tested on: BT-549; test: as above
# Summary of the method: as §1
# [21] = tested on: CAL-120; test: as above
# Summary of the method: as §1
# [22] = tested on: CAL-148; test: as above
# Summary of the method: as §1
# [23] = tested on: CAL-51; test: as above
# Summary of the method: as §1
# [24] = tested on: CAL-85-1; test: as above
# Summary of the method: as §1
# [25] = tested on: DU-4475; test: as above
# Summary of the method: as §1
# [26] = tested on: HCC1143; test: as above
# Summary of the method: as §1
# [27] = tested on: HCC1599; test: as above
# Summary of the method: as §1
# [28] = tested on: HCC1937; test: as above
# Summary of the method: as §1
# [29] = tested on: HDQ-P1; test: as above
# Summary of the method: as §1
# [30] = tested on: Hs578T; test: as above
# Summary of the method: as §1
# [31] = tested on: MCF-10A; test: as above
# Summary of the method: as §1
# [32] = tested on: MDA-MB-231; test: as above
# Summary of the method: as §1
# [33] = tested on: MDA-MB-436; test: as above
# Summary of the method: as §1
# [34] = tested on: MDA-MB-453; test: as above
# Summary of the method: as §1
# [35] = tested on: MDA-MB-468; test: as above
# Summary of the method: as §1
# [36] = tested on: MFM-223; test: as above
# Summary of the method: as §1
# [37] = tested on: SK-BR-3; test: as above
# Summary of the method: as §1
Compound,normalised response [1] [%],normalised response [2] [%],normalised response [3] [%],normalised response [4] [%],normalised response [5] [%],normalised response [6] [%],normalised response [7] [%],normalised response [8] [%],normalised response [9] [%],normalised response [10] [%],normalised response [11] [%],normalised response [12] [%],normalised response [13] [%],normalised response [14] [%],normalised response [15] [%],normalised response [16] [%],normalised response [17] [%],normalised response [18] [%],normalised response [19] [%],normalised response [20] [%],normalised response [21] [%],normalised response [22] [%],normalised response [23] [%],normalised response [24] [%],normalised response [25] [%],normalised response [26] [%],normalised response [27] [%],normalised response [28] [%],normalised response [29] [%],normalised response [30] [%],normalised response [31] [%],normalised response [32] [%],normalised response [33] [%],normalised response [34] [%],normalised response [35] [%],normalised response [36] [%],normalised response [37] [%]
CC1=C(/C=C/C(C)=C/C=C/C(C)=C/C(=O)O)C(C)(C)CCC1 [Tretinoin] (1000 nM),99.4,101,107,98.5,99,99.5,105,115,101,93.8,91.2,59.5,80.4,96.5,96.4,114,109,97.5,97,101,101,78.1,111,92.2,102,96.8,99.3,97.7,102,90.7,82,96.8,95.6,97.6,84.6,93.5,70.7
Oc1ncc(N(CCCl)CCCl)c(O)n1 [Uracil mustard] (1000 nM),101,103,106,103,104,115,105,117,96,102,113,107,102,107,98.7,112,120,102,104,100,106,93.9,113,99.3,95.4,101,108,93.8,105,99,118,96.5,106,104,104,98.2,100
CCCCC(=O)OCC(=O)[C@]1(O)Cc2c(O)c3c(c(O)c2[C@@H](O[C@H]2C[C@H](NC(=O)C(F)(F)F)[C@H](O)[C@H](C)O2)C1)C(=O)c1c(OC)cccc1C3=O [Valrubicin] (500 nM),106,78.4,118,56.9,67.6,144,117,150,134,167,131,127,113,157,131,131,276,108,83.8,64.1,86.9,30.4,50.3,80.3,52.3,75.5,102,77.5,81.7,88.6,75.6,85.4,57.5,120,47.1,108,41
CCCS(=O)(=O)Nc1ccc(F)c(C(=O)c2c[nH]c3ncc(-c4ccc(Cl)cc4)cc23)c1F [Vemurafenib] (1000 nM),98,116,99.7,101,82.6,100,78.9,91.8,90.8,108,73.9,100,88.2,97,65.4,104,127,98,90.8,93.1,90,86.4,88.6,92.3,35,95.6,104,97.3,94.8,103,101,94.3,94.2,90.7,86.9,86.4,79
